The METLIN SMRT retention time set (Domingo-Almenara et al. 2019)

Experiment: gradient 5% acetonitrile 3 min, to 50% in 2 min, to 85% in 15 min, held 3 min, 100 µL/min
Settings: column: Zorbax Extend-C18 2.1 x 50 mm; eluents: water / acetonitrile, 0.1% formic acid
Procedure, shortened: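 Data were gathered over 3 months by HPLC coupled to a quadrupole time-of-flight mass spectrometer, operated in positive and negative ionization mode. Mixtures of ~100 pure standards ran on a Zorbax Extend-C18 column (2.1 × 50 mm, 1.8 μm) at 100 μL/min, with water and acetonitrile each containing 0.1% formic acid and dead and dwell volumes of 40 μL and 900 μL. Retention time was read from adduct peaks picked by computer and checked manually.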

| SMILES | RP-LC retention time [s] |
| --- | --- |
| CC(=O)N1CCN(C(=O)CN2C(=O)C3CCCCN3c3ccc(S(=O)(=O)N(C)C)cc32)CC1 (stereo not given) | 680 |
| COc1ccc(CNC(=O)c2c(C)sc3ccn(C)c(=O)c23)c(OC)c1 | 743 |
| CC1=C(c2ccc(F)cc2)S(=O)(=O)N=C1N1CCCN(C(=O)c2ccco2)CC1 | 764 |
| COc1ccc(CNC(=O)C2CCN(c3ccc(SCc4ccccc4)nn3)CC2)cc1 | 742 |
| CCc1c(C(=O)O)nnn1-c1ccccc1F | 690 |
| CCOc1cccc(-c2noc(Cn3c(=O)n(-c4ccc(C)cc4)c(=O)c4sccc43)n2)c1 | 1090 |
| CCOCCCNC(=O)N1CC(c2nc(C)no2)C2(CCOCC2)C1 (stereo not given) | 616 |
| Cn1c(N2CCC(C(=O)N3CCN(c4ccc(F)cc4)CC3)CC2)cc(=O)n(C)c1=O | 704 |
| Cc1nc(-c2cn(C(C)C)c3ncccc23)sc1C(=O)NCc1cccnc1 | 657 |
| CC(C)NCc1ccc(-c2ccc(Cl)cc2)o1 | 669 |
| Cc1cc(C(=O)N2CCC(c3cc(N)on3)CC2)no1 | 625 |
| COc1ccc(CC(=O)NCCc2ccc(N(C)C)cc2)cc1 | 571 |
| CCN(CC)S(=O)(=O)c1cc(-c2nnc(-c3ccc(Br)cc3)o2)ccc1C | 1230 |
| CCc1nc(-c2csc(S(=O)(=O)N3CCC(C(=O)NCc4cccnc4)CC3)c2)no1 | 645 |
| COc1ccc(OC)c(C2CN(C(=O)c3ccc4c(c3)OCO4)CC2C(=O)N2CCCC2)c1 (stereo not given) | 723 |
| Cc1nc2c(ccc3nc(NC(=O)c4ccc(Cl)s4)sc32)s1 | 986 |
| CCOc1ccc(Cl)cc1S(=O)(=O)N1CCC(C(=O)N2CCCC2)CC1 | 820 |
| COc1ccc2[nH]cc(CCNC(=O)c3ccccc3F)c2c1 | 789 |
| Cc1ccc(C)c(S(=O)(=O)N2CCC(c3noc(COCC4CC4)n3)CC2)c1 | 1100 |
| Cc1ccc(C(=O)N2CCCC(COc3ccc(C(=O)NC(C)C)cc3)C2)c(C)c1 (stereo not given) | 916 |
| COC(=O)c1cnc2nc(C)ccc2c1Nc1cccc(Cl)c1 | 705 |
| CC(C)(C)C(=O)N1CCCC(C(=O)N2CCOCC2)C1 (stereo not given) | 625 |
| Cc1coc2c(C)c3oc(=O)c(CCC(=O)NCCc4ccc(S(N)(=O)=O)cc4)c(C)c3cc12 | 828 |

| SMILES | RP-LC retention time [s] |
| --- | --- |
| Cc1noc(-c2cccc(OC3CN(C(=O)c4ccco4)C3)c2)n1 | 789 |
| COC(=O)CNC(=O)N1CCCN(c2nc3cc(F)ccc3n3cccc23)CC1 | 612 |
| Cc1cc(C)cc(Oc2nccn3c(=O)n(CC(=O)Nc4cc(F)ccc4F)nc23)c1 | 950 |
| Cc1cc(S(=O)(=O)N2CCC(n3cnnc3-c3ccccc3)CC2)ccc1F | 840 |
| CN1CCCc2cc(C(CNC(=O)C(=O)NCc3ccc4c(c3)OCO4)N3CCCCC3)ccc21 (stereo not given) | 734 |
| Cc1ccccc1CC(=O)Nc1cc(-c2cccs2)no1 | 969 |
| CC(=O)N1CCC(C(=O)N2CCCN(c3cc(-c4ccc(Cl)cc4)[nH]n3)CC2)CC1 | 648 |
| CC(C)Cc1ccc(-c2csc(NC(=O)c3cnccn3)n2)cc1 | 1130 |
| CC(C)CNC(=O)CN1CCN(Cc2ccccc2)C1=O | 717 |
| O=c1c2sccc2n(Cc2nc(-c3ccccc3Cl)no2)c(=O)n1Cc1ccc(F)cc1 | 1110 |
| O=C(NCCc1ccccc1)N1CCc2nc(-c3ccccc3)ncc2C1 | 860 |
| CC(C)(O)CC(=O)NCCn1ccc2ncnc(Nc3ccc(Oc4cccc(C(F)(F)F)c4)c(Cl)c3)c21 | 802 |
| O=c1ccc(-c2cccc(Br)c2)nn1Cc1ccncc1 | 595 |
| COc1cccc(S(=O)(=O)N2CCOCCNC(=O)[C@@H]3CCC[C@@H]32)c1 | 740 |
| COc1ccc(NC(=O)N2CCCC(C)(C(=O)NCc3ccccc3)C2)cc1OC (stereo not given) | 846 |
| CCc1c(C(=O)OC)ncc2[nH]c3cc(OC)c(OC)cc3c12 | 702 |
| COc1ccccc1-c1nc2nccc(-c3cc(OC)c(OC)c(OC)c3)n2n1 | 824 |
| O=C1CC(c2noc(-c3cccc(F)c3)n2)CN1c1ccccc1 (stereo not given) | 958 |
| COC(=O)c1c(C)[nH]c(C(=O)N2CCC(CC(=O)NCCN3CCCCC3C)CC2)c1C (stereo not given) | 592 |
| O=C(CNC(=O)c1ccc(C(F)(F)F)cc1)Nc1nc2ccccc2[nH]1 | 688 |
| O=C(Nc1cnn(-c2ncncc2N2CCCCC2)c1)C1CC1 | 604 |
| O=C(NCc1ccccc1Cl)C1CCN(c2nnc(-c3ccccc3)o2)CC1 | 847 |
| Cc1ccc(-n2nc(C)c3sc(N4CCCC(C(=O)NC5CCCc6ccccc65)C4)nc32)cc1 (stereo not given) | 1300 |

| SMILES | RP-LC retention time [s] |
| --- | --- |
| O=C(Nc1ccc(Cl)cc1)N1CCC(n2cnc3ccc(F)cc3c2=O)CC1 | 848 |
| CCOc1ccccc1CNC(=O)c1ccc2c(c1)NC(=O)C1CCCCN21 (stereo not given) | 876 |
| COC(=O)c1ccccc1NC(=O)CSc1cc(C)nc(-c2cccnc2)n1 | 734 |
| Cc1oc(-c2[nH]ncc2C(=O)N2CCCC2)cc1S(=O)(=O)N(C)C | 620 |
| Cc1ccc(-c2cc3c4nnc(SCC(=O)NC5CCCCC5)n4ccn3n2)cc1C | 978 |
| CCc1ccc(Oc2cc(N3CCC(C(=O)NCCc4cccs4)CC3)ncn2)cc1 | 851 |
| COC(=O)c1ccc(NC(=O)N2CC(Oc3cccc(-c4nc(C)no4)c3)C2)cc1 | 883 |
| Cc1ccc(CNC(=O)Nc2cnc3c(c2)CCC3)cc1 | 534 |
| CCOc1ccc(-c2[nH]ncc2CNS(=O)(=O)c2ccc(NC(C)=O)cc2)cc1 | 702 |
| CCOc1cc(=O)n2c(c1C(=O)NC(C)C)CCCCC2 | 623 |
| CCn1cc(CCNS(=O)(=O)c2ccc(C)cc2)c2cccnc21 | 786 |
| CCc1nncn1C1CCN(S(=O)(=O)c2ccc(OC)c(Cl)c2)CC1 | 736 |
| COc1ccc(CCC(=O)N2CCN(c3nccn3-c3cccc(Cl)c3)CC2)cc1 | 617 |
| O=C(CN1CCCCC1c1nc(C2CC2)no1)Nc1ccccn1 (stereo not given) | 734 |
| CS(=O)(=O)N1CCC(C(=O)Nc2nc3c(s2)COCC3)CC1 | 604 |
| Cc1sc(-c2nnc(C3CC3)o2)cc1NC(=O)Cc1c[nH]c2ccccc12 | 877 |
| Cc1cccc(NC(=O)CN2C(=O)CCCc3cc(S(=O)(=O)N4CCC(C)CC4)ccc32)c1 | 1010 |
| COc1ccccc1NC(=O)N1CCCC(Cn2cnc3cccnc32)C1 (stereo not given) | 667 |
| O=C(CCn1c(N2CCCC2)nc2ccsc2c1=O)NCc1ccccc1F | 748 |
| COc1ccc(NC(=O)Cn2c(N)nc(C)c(C)c2=O)cc1 | 595 |
| Cc1cccc(Cl)c1NC(=O)/C=C/c1ccccc1 | 850 |
| O=C(NCc1cccs1)C1CCCN(C(=O)C2Sc3ccccc3NC2=O)C1 (stereo not given) | 725 |
| COc1ccc(-c2ncc3c(n2)CCN(C(=O)Nc2cc(Cl)ccc2C)C3)cc1 | 984 |

| SMILES | RP-LC retention time [s] |
| --- | --- |
| O=C(COc1ccccc1-c1nc(-c2ccccc2Cl)no1)NCc1ccco1 | 1060 |
| CN1C(=O)c2cccn2CC1C(=O)NC1CCCCC1 (stereo not given) | 681 |
| CCOCC(=O)N1CC(c2nc(-c3cccnc3)no2)C2(CCOCC2)C1 (stereo not given) | 622 |
| CCCCc1ccc(NC(=O)CSc2cc(N3CCN(c4ccccc4OC)CC3)ncn2)cc1 | 1310 |
| O=C(Nc1ccccc1)C1CCCN(c2ccc3cc(S(=O)(=O)N4CCCC4)ccc3n2)C1 (stereo not given) | 773 |
| O=C(c1ccco1)N1CCC(Cc2nnc(-c3ccccc3)o2)CC1 | 749 |
| CC[C@@]1(O)C(=O)OCc2c1cc1n(c2=O)Cc2cc3c(NC(=O)CN)cccc3nc2-1 | 626 |
| COc1ccc(CN2CCC(NC(=O)C3(c4ccccc4)CC3)C2)cn1 (stereo not given) | 639 |
| CCN1C(=O)COc2ccc(-c3nc(NC(=O)c4cc(OC)c(OC)c(OC)c4)sc3C)cc21 | 1020 |
| Cc1ccc(NC(=O)Cn2nc(N3CCC(C)CC3)c3ccccc3c2=O)cc1 | 1140 |
| CCCNc1cc(N2CCC(CCC(=O)NCc3ccc(C)cc3)CC2)ncn1 | 716 |
| Cc1cc(C(=O)NC2CCc3nnc(C4CC4)n3CC2)c(C)n1Cc1ccco1 (stereo not given) | 660 |
| CCn1c(=O)c2ccccc2n(Cc2nc(-c3ccc(SC)cc3)no2)c1=O | 926 |
| O=C(NC1CCCCCC1)c1cc(C2CC2)[nH]n1 | 792 |
| CC(C)NC(=O)N1CC=C(c2cn(C(C)C)c3ncccc23)CC1 | 632 |
| Cn1c(CNC(=O)C2CCc3sc(C(=O)N4CCCC4)cc3C2)nc2ccccc21 (stereo not given) | 602 |
| Cc1cccc(-c2noc(C3CCCN3S(=O)(=O)c3ccc4c(c3)CCCC4)n2)c1 (stereo not given) | 1340 |
| O=C(Cc1csc(NC(=O)C2CC2)n1)NCc1ccccn1 | 519 |
| Cc1ccc(-c2ccnc(SCC(=O)Nc3ccccc3C(F)(F)F)n2)cc1C | 1120 |
| O=S(=O)(NCC(c1cccnc1)c1c[nH]c2ccccc12)c1ccc(Cl)c(Cl)c1 (stereo not given) | 787 |
| Cc1cnc(C(=O)N2CCCCCC2c2nnc(C)o2)cn1 (stereo not given) | 649 |
